The target of one test is SARS-CoV-2 Mpro (Severe acute respiratory syndrome coronavirus 2, UniProt P0DTD1). In words: SARS-CoV-2 Mpro enzymatic inhibition assay (fluorescence). It is filed as biochemical. A digest of the protocol: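 Recombinant Mpro expressed in E. coli was preincubated 30 min at room temperature with 10-point, 3-fold serially diluted compound in duplicate. Fluorogenic substrate was then added and incubated 60 min at 30° C, and fluorescence read at Ex/Em 340/490 nm. IC50 came from a four-parameter fit of % inhibition.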

Another test addresses HCoV-229E Mpro (Human coronavirus 229E, UniProt P0C6X1). In words: HCoV-229E Mpro enzymatic inhibition assay (fluorescence). It is filed as biochemical. The protocol: (§1) The hCoV Mpro are cloned, expressed in E. coli and purified by WuXi AppTec Co., Ltd. The substrate are synthesized by Genscript Biotech.
(§2) Compounds are 3 fold serially diluted for 10 doses and added to an assay plate (384w format) using ECHO, in duplicate wells. The test concentration of test compounds is defined by sponsor. […] For no inhibition control (ZPE, zero percent effect), DMSO is added.
(§3) 25 μL of Mpro proteins are added to the assay plates containing compounds, respectively, using Multidrop. The compounds and Mpro proteins are pre-incubated at room temperature for 30 min. Then 5 µL of Mpro substrates are added to the related assay plates, respectively. Each activity testing point has a relevant background control to normalize the fluorescence interference of compound.
(§4) After 60 min incubation at 30° C., the fluorescence signal (RFU) is detected using a microplate reader M2e (SpectraMax) at Ex/Em=340 nm/490 nm.
(§5) The inhibition activity is calculated using the formula below, IC50 values will be calculated using the Inhibition % data.
(§6) Inhibition %=[(CPD−BGCPD)−(ZPE−BGZPE)/(HPE−BGHPE)−(ZPE−BGZPE)]×[…] • CPD: Signal of test compounds wells, containing compound+enzyme+substrate. • ZPE: Average of signals of zero percent effective control wells, containing enzyme+substrate, no compound. • HPE: Average of signals of hundred percent effect control wells, containing GC376+enzyme+substrate. • BG: Compound background control wells, containing compound+substrate, no enzyme
(§7) IC50 values of compounds are calculated with the GraphPad Prism software using the nonlinear regression model of log(inhibitor) vs. response—Variable slope (four parameters).

In another test the target is HCoV-HKU1 Mpro (Human coronavirus HKU1, UniProt P0C6X2). In words: HCoV-HKU1 Mpro enzymatic inhibition assay (fluorescence). It counts as biochemical. The protocol:
as §1, §2, §3, §4, §5, §6, §7

The target in another test is MERS Mpro (Middle East respiratory syndrome-related coronavirus, UniProt K9N7C7). In words: biochemical. Details: species or system MERS-CoV.
The next test has as its target HCoV-NL63 Mpro (Human coronavirus NL63, UniProt P0C6X5). Nature of the test: HCoV-NL63 Mpro enzymatic inhibition assay (fluorescence). It counts as biochemical. The protocol:
as §1, §2, §3, §4, §5, §6, §7

In the next test the target is HCoV-OC43 Mpro (Human coronavirus OC43, UniProt P0C6X6). In words: HCoV-OC43 Mpro enzymatic inhibition assay (fluorescence). It counts as biochemical. How it is done: as §1, §2, §3, §4, §5, §6, §7
A further test concerns the target SARS-CoV-1 Mpro (Severe acute respiratory syndrome coronavirus, UniProt P0C6X7). In words: biochemical.

Where two headings read alike, the source gives them in different places.

HCoV-229E Mpro, sequence (P0C6X1 2966-3267 limits assumed): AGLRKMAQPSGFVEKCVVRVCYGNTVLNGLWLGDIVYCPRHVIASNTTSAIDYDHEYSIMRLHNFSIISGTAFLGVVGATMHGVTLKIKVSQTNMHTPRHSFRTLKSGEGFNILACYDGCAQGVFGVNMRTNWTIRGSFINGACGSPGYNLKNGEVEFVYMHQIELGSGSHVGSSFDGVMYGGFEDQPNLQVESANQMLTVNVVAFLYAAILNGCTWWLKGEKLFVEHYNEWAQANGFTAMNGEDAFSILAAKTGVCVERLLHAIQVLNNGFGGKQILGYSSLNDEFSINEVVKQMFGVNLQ
MERS Mpro, sequence (K9N7C7 3248-3553 limits assumed): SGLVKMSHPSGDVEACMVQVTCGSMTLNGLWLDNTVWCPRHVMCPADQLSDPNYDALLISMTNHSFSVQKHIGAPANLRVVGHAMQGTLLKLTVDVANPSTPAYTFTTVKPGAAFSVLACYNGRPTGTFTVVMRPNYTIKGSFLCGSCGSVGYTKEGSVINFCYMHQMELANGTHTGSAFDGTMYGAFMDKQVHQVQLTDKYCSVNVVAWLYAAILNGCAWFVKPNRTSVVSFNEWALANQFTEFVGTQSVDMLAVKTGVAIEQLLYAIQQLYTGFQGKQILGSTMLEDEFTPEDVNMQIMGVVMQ
HCoV-NL63 Mpro, sequence (P0C6X5 2940-3242 limits assumed): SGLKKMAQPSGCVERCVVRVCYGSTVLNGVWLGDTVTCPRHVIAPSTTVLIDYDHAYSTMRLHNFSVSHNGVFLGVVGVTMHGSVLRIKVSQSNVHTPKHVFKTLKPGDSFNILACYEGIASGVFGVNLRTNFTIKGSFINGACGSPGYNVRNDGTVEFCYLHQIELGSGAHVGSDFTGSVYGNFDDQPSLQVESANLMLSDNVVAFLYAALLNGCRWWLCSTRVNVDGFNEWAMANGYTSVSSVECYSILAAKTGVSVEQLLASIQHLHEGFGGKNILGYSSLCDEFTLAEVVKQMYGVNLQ
HCoV-HKU1 Mpro, sequence (P0C6X2 3335-3637 limits assumed): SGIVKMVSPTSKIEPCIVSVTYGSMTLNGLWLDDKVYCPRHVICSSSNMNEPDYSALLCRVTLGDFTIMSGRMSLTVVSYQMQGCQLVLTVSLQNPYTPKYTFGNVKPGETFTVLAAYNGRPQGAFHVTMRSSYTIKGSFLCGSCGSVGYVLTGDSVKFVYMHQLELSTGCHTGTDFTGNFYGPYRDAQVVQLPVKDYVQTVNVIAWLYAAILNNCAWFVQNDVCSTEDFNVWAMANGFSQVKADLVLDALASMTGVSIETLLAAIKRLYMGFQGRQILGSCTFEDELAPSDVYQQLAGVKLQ
HCoV-OC43 Mpro, sequence (P0C6X6 3247-3549 limits assumed): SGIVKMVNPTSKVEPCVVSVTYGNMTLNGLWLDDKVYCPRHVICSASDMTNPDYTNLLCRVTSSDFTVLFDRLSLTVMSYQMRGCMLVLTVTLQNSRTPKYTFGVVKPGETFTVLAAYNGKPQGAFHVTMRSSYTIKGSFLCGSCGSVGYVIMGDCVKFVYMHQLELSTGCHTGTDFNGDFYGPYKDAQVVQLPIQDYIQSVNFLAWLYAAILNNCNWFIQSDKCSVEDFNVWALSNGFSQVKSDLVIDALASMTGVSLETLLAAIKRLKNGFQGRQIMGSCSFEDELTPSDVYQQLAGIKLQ

As for `CC1(C)[C@@H]2[C@@H](C(=O)N[C@H](C=O)C[C@@H]3CCNC3=O)N(C(=O)C3(O)CCCCC3)C[C@@H]21` [Compound 94, (1R,2S,5S)-3-(1-Hydroxycyclohexanecarbonyl)-6,6-dimethyl-N—((S)-1-oxo-3-((S)-2-oxopyrrolidin-3-yl)propan-2-yl)-3-azabicyclo[3.1.0]hexane-2-carboxamide], the IC50 on SARS-CoV-2 Mpro (mean, 25 nM protein, 25 μM substrate, 30 min pre-incubation, 60 min at 30° C., read-out: Mpro_SARS-CoV-2 mean IC50) turned out to be 45.1 nM; on HCoV-229E Mpro, 69.9 nM; at HCoV-HKU1 Mpro it was 180 nM; on MERS Mpro, 568 nM; on HCoV-NL63 Mpro, 344 nM; at HCoV-OC43 Mpro, 231 nM. On SARS-CoV-1 Mpro, this compound had an IC50 of 115 nM.

In the case of `CC1(C)[C@@H]2[C@@H](C(=O)N[C@H](C=O)C[C@@H]3CCCNC3=O)N(C(=O)CC3CCCCC3)C[C@@H]21` [Compound 79, (1R,2S,5S)-3-(2-Cyclohexylacetyl)-6,6-dimethyl-N—((S)-1-oxo-3-((S)-2-oxopiperidin-3-yl)propan-2-yl)-3-azabicyclo[3.1.0]hexane-2-carboxamide], the IC50 was 34.5 nM against SARS-CoV-2 Mpro; 50.8 nM against HCoV-229E Mpro; 27.1 nM at HCoV-HKU1 Mpro; 177 nM at MERS Mpro; 57.8 nM on HCoV-NL63 Mpro; 38.6 nM against HCoV-OC43 Mpro. The midpoint of inhibition on SARS-CoV-1 Mpro, the IC50, lay at 25.9 nM.

Consider `Cc1cccc2c1cc(C(=O)N1C[C@H]3[C@@H]([C@H]1C(=O)N[C@H](C=O)C[C@@H]1CCNC1=O)C3(C)C)n2C` [Compound 118, (1R,2S,5S)-3-(1,4-Dimethylindole-2-carbonyl)-N-[(1S)-1-formyl-2-[(3S)-2-oxopyrrolidin-3-yl]ethyl]-6,6-dimethyl-3-azabicyclo[3.1.0]hexane-2-carboxamide], for which the IC50 at SARS-CoV-2 Mpro was 127 nM; against HCoV-229E Mpro it was 325 nM; at HCoV-HKU1 Mpro, 324 nM; against MERS Mpro, 3290 nM; at HCoV-NL63 Mpro, 1780 nM; at HCoV-OC43 Mpro, 436 nM. Besides, on SARS-CoV-1 Mpro, the IC50 was 349 nM.

Take `CC1(C)[C@@H]2[C@@H](C(=O)N[C@H](C=O)C[C@@H]3CCNC3=O)N(C(=O)c3cc4cccc(C#N)c4[nH]3)C[C@@H]21` [Compound 32, (1R,2S,5S)-3-(7-cyano-1H-indole-2-carbonyl)-6,6-dimethyl-N—((S)-1-oxo-3-((S)-2-oxopyrrolidin-3-yl)propan-2-yl)-3-azabicyclo[3.1.0]hexane-2-carboxamide]: the IC50 at SARS-CoV-2 Mpro came to 19.7 nM; on HCoV-229E Mpro it was 35.4 nM; on HCoV-HKU1 Mpro, 21.8 nM; against MERS Mpro, 177 nM; on HCoV-NL63 Mpro, 59.6 nM; against HCoV-OC43 Mpro, 52.4 nM. On SARS-CoV-1 Mpro, this compound had an IC50 of 36.3 nM.

For `Cn1c(C(=O)N2C[C@H]3[C@@H]([C@H]2C(=O)N[C@H](C=O)C[C@@H]2CCNC2=O)C3(C)C)cc2cc(Cl)ccc21` [Compound 90, (1R,2S,5S)-3-(5-Chloro-1-methyl-1H-indole-2-carbonyl)-6,6-dimethyl-N—((S)-1-oxo-3-((S)-2-oxopyrrolidin-3-yl)propan-2-yl)-3-azabicyclo[3.1.0]hexane-2-carboxamide], the IC50 against SARS-CoV-2 Mpro turned out to be 43.6 nM; against HCoV-229E Mpro it was 60.5 nM; on HCoV-HKU1 Mpro it was 48 nM; at MERS Mpro it was 655 nM; against HCoV-NL63 Mpro, 202 nM; against HCoV-OC43 Mpro, 130 nM. The same compound had a 50% inhibitory concentration (IC50) on SARS-CoV-1 Mpro of 79.4 nM.

For the compound `NC(=O)C(=O)[C@H](C[C@@H]1CCNC1=O)NC(=O)[C@@H]1CC2(CC2)CN1C(=O)c1cc2ccccc2[nH]1` [Compound 35, (S)—N—((S)-4-Amino-3,4-dioxo-1-((S)-2-oxopyrrolidin-3-yl)butan-2-yl)-5-(1H-indole-2-carbonyl)-5-azaspiro[2.4]heptane-6-carboxamide], the IC50 against SARS-CoV-2 Mpro was found to be 20.3 nM; at HCoV-229E Mpro it was 37.4 nM; on HCoV-HKU1 Mpro, 11.4 nM; at MERS Mpro it was 179 nM; against HCoV-NL63 Mpro, 48.5 nM; on HCoV-OC43 Mpro, 64.4 nM. This compound also showed an IC50 against SARS-CoV-1 Mpro of 65.8 nM.

In the case of `CC1(C)[C@@H]2[C@@H](C(=O)N[C@H](C=O)C[C@@H]3CCNC3=O)N(C(=O)c3cc4ccc(F)c(F)c4[nH]3)C[C@@H]21` [Compound 4, (1R,2S,5S)-3-(6,7-difluoro-1H-indole-2-carbonyl)-6,6-dimethyl-N—((S)-1-oxo-3-((S)-2-oxopyrrolidin-3-yl)propan-2-yl)-3-azabicyclo[3.1.0]hexane-2-carboxamide], the IC50 against SARS-CoV-2 Mpro was found to be 10.2 nM; against HCoV-229E Mpro it was 28.5 nM; against HCoV-HKU1 Mpro, 26.8 nM; at MERS Mpro it was 198 nM; against HCoV-NL63 Mpro, 34.4 nM; at HCoV-OC43 Mpro, 40.8 nM. Moreover, on SARS-CoV-1 Mpro, the IC50 was determined as 23.6 nM.

Regarding `CC(C)c1ccc(F)c2[nH]c(C(=O)N3C[C@H]4[C@@H]([C@H]3C(=O)N[C@H](C#N)C[C@@H]3CCNC3=O)C4(C)C)cc12` [Compound 131, (1R,2S,5S)—N—((S)-1-Cyano-2-((S)-2-oxopyrrolidin-3-yl)ethyl)-3-(7-fluoro-4-isopropyl-1H-indole-2-carbonyl)-6,6-dimethyl-3-azabicyclo[3.1.0]hexane-2-carboxamide], the IC50 on SARS-CoV-2 Mpro came out at 401 nM; against HCoV-229E Mpro it was 690 nM; on HCoV-HKU1 Mpro it was 1140 nM; on MERS Mpro, 9760 nM; against HCoV-NL63 Mpro, 1590 nM; at HCoV-OC43 Mpro, 1540 nM. At SARS-CoV-1 Mpro, this compound came in with an IC50 of 772 nM.

`O=C[C@H](C[C@@H]1CCNC1=O)NC(=O)[C@@H]1CC2(CCC2)CN1C(=O)c1cc2ccccc2[nH]1` [Compound 10, (S)-6-(1H-indole-2-carbonyl)-N—((S)-1-oxo-3-((S)-2-oxopyrrolidin-3-yl)propan-2-yl)-6-azaspiro[3.4]octane-7-carboxamide]: the IC50 worked out at 12.3 nM against SARS-CoV-2 Mpro; 32.3 nM against HCoV-229E Mpro; 17.7 nM on HCoV-HKU1 Mpro; 194 nM against MERS Mpro; 45 nM on HCoV-NL63 Mpro; 35.8 nM at HCoV-OC43 Mpro. The midpoint of inhibition at SARS-CoV-1 Mpro, the IC50, lay at 45.3 nM.

With `C[C@@H](C(=O)N1C[C@H]2[C@@H]([C@H]1C(=O)N[C@H](C=O)C[C@@H]1CCNC1=O)C2(C)C)C1CCCCC1` [Compound 67, (1R,2S,5S)-3-((R)-2-Cyclohexylpropanoyl)-6,6-dimethyl-N—((S)-1-oxo-3-((S)-2-oxopyrrolidin-3-yl)propan-2-yl)-3-azabicyclo[3.1.0]hexane-2-carboxamide], the IC50 was 27.8 nM on SARS-CoV-2 Mpro; 27.3 nM on HCoV-229E Mpro; 10.8 nM against HCoV-HKU1 Mpro; 170 nM against MERS Mpro; 51.8 nM on HCoV-NL63 Mpro; 33.2 nM against HCoV-OC43 Mpro. Also, the IC50 on SARS-CoV-1 Mpro was 44.1 nM.

Regarding `Cc1ccc2cc(C(=O)N3C[C@H]4[C@@H]([C@H]3C(=O)N[C@H](C=O)C[C@@H]3CCNC3=O)C4(C)C)[nH]c2c1` [Compound 72, (1R,2S,5S)-6,6-Dimethyl-3-(6-methyl-1H-indole-2-carbonyl)-N—((S)-1-oxo-3-((S)-2-oxopyrrolidin-3-yl)propan-2-yl)-3-azabicyclo[3.1.0]hexane-2-carboxamide], the IC50 against SARS-CoV-2 Mpro amounted to 31.3 nM; at HCoV-229E Mpro, 30.1 nM; against HCoV-HKU1 Mpro it was 20.8 nM; against MERS Mpro, 346 nM; against HCoV-NL63 Mpro, 21.7 nM; against HCoV-OC43 Mpro, 49.4 nM. On SARS-CoV-1 Mpro, inhibition was half-maximal at 58.9 nM (IC50).

With `C=C1C[C@@H](C(=O)N[C@H](C=O)C[C@@H]2CCNC2=O)N(C(=O)c2cc3ccccc3[nH]2)C1` [Compound 108, (S)-1-(1H-Indole-2-carbonyl)-4-methylene-N—((S)-1-oxo-3-((S)-2-oxopyrrolidin-3-yl)propan-2-yl)pyrrolidine-2-carboxamide], the IC50 is 78.5 nM on SARS-CoV-2 Mpro; 48 nM on HCoV-229E Mpro; 29 nM against HCoV-HKU1 Mpro; 291 nM against MERS Mpro; 38 nM on HCoV-NL63 Mpro; 193 nM against HCoV-OC43 Mpro. The compound further had an IC50 against SARS-CoV-1 Mpro of 159 nM.

Broadly, the IC50 is the point on the concentration scale where inhibition reaches its midpoint.

The values are drawn from patent US20260355212A1 (priority 2022, published 2026).
